Measurements published in US10220025B1, “Self-emulsifying formulation of CARP-1 functional mimetics” (Florida A&M University, priority 2016, dated 2019).

Test system: parental and drug-resistant TNBC and SKBR-3 cells
Experiment: scratch/wound healing cell migration assay
Type: cell-based
Conditions: FIGS. 11B, 11C, 12A, 12B, 13A, 13B
Description: The TNBC cells migration in the absence or presence of CFMs was measured by the “scratch/wound healing” assay. Cells were seeded in a 6-well plate (˜10,000 cells/well), and when attached, a scratch was created in the cell monolayer using sterile pipette tip. The cells were then allowed to continue growing in the absence (Control) or presence of noted dose of each of the agents for indicated time periods. The cells were photographed at the beginning and at regular intervals during the treatment period, and the images from control cells were compared with the treated cells to determine the migration of the cells essentially as described before [Liang C C, Park A Y, Guan J L In vitro scratch assay: a convenient and inexpensive method for analysis of cell migration in vitro. Nat Protoc. 2007; 2:329-33]. The photomicrographs of the cells were recorded under different magnifications utilizing Zeiss microscope with attached 35 mm camera.

## O=C1N(Cc2ccccc2Cl)c2ccccc2C12NN=C(c1cccc(Cl)c1)S2 (stereo not shown) [CFM-4.16]
  growth of cells in the areas of wound caused by a scratch: prevented
